According to article PMC6768771 (Current cancer drug targets, 2019):

How the values were obtained:
Assay in all cases: Cell viability assay
Assay type in all cases: cell-based
A549 cells = conditions: Homo sapiens, A549, 48 h, read-out: EC50 at 48 h
NCI-H1573 cells = conditions: Homo sapiens, NCI-H1573, 48 h, read-out: EC50 at 48 h
NCI-H661 cells = conditions: Homo sapiens, NCI-H661, 48 h, read-out: EC50 at 48 h
NCI-H1299 cells = conditions: Homo sapiens, NCI-H1299, 48 h, read-out: EC50 at 48 h
NCI-H460 cells = conditions: Homo sapiens, NCI-H460, 48 h, read-out: EC50 at 48 h
NCI-H1563 cells = conditions: Homo sapiens, NCI-H1563, 48 h, read-out: EC50 at 48 h

| EC50 (A549 cells) [µM] | EC50 (NCI-H1573 cells) [µM] | EC50 (NCI-H661 cells) [µM] | EC50 (NCI-H1299 cells) [µM] | EC50 (NCI-H460 cells) [µM] | EC50 (NCI-H1563 cells) [µM] | SMILES |
| --- | --- | --- | --- | --- | --- | --- |
| > 200 | > 200 | > 200 | 72 | 56 | 80 | CC(=O)O[C@@]12CO[C@@H]1C[C@H](O)[C@@]1(C)C(=O)[C@H](O)C3=C(C)[C@@H](OC(=O)[C@H](O)[C@@H](NC(=O)OC(C)(C)C)c4ccccc4)C[C@@](O)([C@@H](OC(=O)c4ccccc4)[C@H]21)C3(C)C [Docetaxel] |
| > 200 | > 200 | > 200 | > 200 | > 200 | > 200 | C#Cc1cccc(Nc2ncnc3cc(OCCOC)c(OCCOC)cc23)c1 [Erlotinib] |
| > 200 | > 200 | 11 | 60 | 26 | > 200 | CC(=O)O[C@H]1C(=O)[C@@]2(C)[C@H]([C@H](OC(=O)c3ccccc3)[C@]3(O)C[C@H](OC(=O)[C@H](O)[C@@H](NC(=O)c4ccccc4)c4ccccc4)C(C)=C1C3(C)C)[C@]1(OC(C)=O)CO[C@@H]1C[C@@H]2O [Paclitaxel] |
